Earlier results in US6342520B1, “Locally injectable chemotherapeutics” (priority 2000, dated 2002).

Conditions: Phase II clinical trials, administration by general circulation

CC(=O)OC[C@]12CCC(C)=C[C@H]1O[C@@H]1[C@H](O)[C@@H](OC(C)=O)[C@@]2(C)[C@]12CO2 [Anguidine]
hematologic toxicity: considerable hematologic toxicity | overall tumor response rate: low
